Test results from US20110281944A1, “METHOD OF A RHEIN COMPOUND FOR INHIBITING PANCREATIC ISLET BETA-CELL DYSFUNCTION AND PREVENTING OR TREATING A PANCREATIC ISLET BETA-CELL DYSFUNCTION RELATED DISORDER” (Research Institute of Nephrology of Nanjing PLA, China, priority 2010, published 2011).
Several values for one entry are separate records, joined by “and”; a condition that tells them apart may be missing. Identical values can stand only once. Entries after “also recorded” stand apart in the source; their conditions may differ.

Columns and labels:
[1] = test system: insulin-resistant obese rats; test: Hyperglycemic clamp in obese rats after treatment with rhein for 4 weeks; type: in vivo, Wistar rats
Source text: (§1) Experimental animals: Insulin-resistant obese rats are 4-week in-bred female Wistar rats induced by feeding with high-sugar high-fat feedstuff (20% sugar, 10% lard, 2.5% cholesterol, 1% cholic acid and 66.5% normal feedstuff) for 3 weeks.
(§2) Administration to the experimental animals: Thirty insulin-resistant obese rats are randomly assigned to treatment group and control group. Additional fifteen normal Wistar rats of 7 week old are used as normal control group. The treatment group of insulin-resistant obese rats is treated with rhein (100 mg/Kg, dissolved in 0.1% cellulose sodium) by gavage for continuous 4 weeks. The insulin-resistant obese control group and the normal control group are administrated with 0.1% cellulose sodium by gavage.

[2] = test system: type 2 diabetic db/db mice; test: Intraperitoneal glucose tolerance test (IPGTT) on db/db mice after treatment with rhein for 8 weeks; type: in vivo; settings: rhein 120 mg/Kg gavage 8 weeks
Experimental: Administration to the experimental animals: Thirty diabetic db/db mice of 4 week old are randomly assigned to treatment group and control group. Additional fifteen normal db/m mice of 4 week old are used as normal control group. The treatment group of diabetic db/db mice is treated with rhein (120 mg/Kg, dissolved in 0.1% cellulose sodium) by gavage for continuous 8 weeks. The diabetic control group of db/db mice and the normal control group of db/m mice are administrated 0.1% cellulose sodium by gavage.
Experimental methods: The intraperitoneal glucose tolerance test (IPGTT) is carried out on the mice after administration for 8 weeks. The mice are fasted overnight, and then are administrated by i.p. injection of glucose at 0.5 g/kg body weight. Blood is collected at 0, 30, 60 and 120 min for detecting whole blood glucose level and insulin level and calculating the area under the curve (AUC) of insulin. The area under the curve of insulin during 0˜30 min (AUCINS0.30) is calculated as: (insulin level at 30 min[…]insulin level at 0 min)×15, for evaluating the ability of early phase insulin secretion.

[3] = test system: pancreatic islets of type 2 diabetic db/db mice; test: Pancreatic islet isolation and perfusion, first phase insulin secretion; type: ex vivo
Experimental: (§3) The agents and animals used in this example are the same as those used in example 1.
Experimental methods: After 8 weeks of administration, 5 mice are randomly selected from each group for pancreatic islet isolation and perfusion as follows. After anesthesia, the opening of common bile duct at duodenal papilla for each animal is clamped in vivo. 2 ml IV type collagenase is injected at the concentration of 1 mg/ml after performing common bile duct puncture under a stereoscopic microscope. After entering the pancreatic duct reversely to expand the pancreas, the pancreas is rapidly removed. The pancreas is placed in Hank's buffer containing 1 mg/ml collagenase and digested for 40 min to remove the collagens, and then washed under vibration for several times. Pancreatic islets are successfully isolated under microscopy. The pancreatic islets are incubated in a CO2 incubator for 2 hour with 50 islets per group, and then the islets are placed into a specially manufactured constant-temperature perfusion equipment. The […] are perfused with 2.8 mM glucose using a Harvard micro-pump at 0.5 ml/min for glucose starvation perfusion, and after 30 min, perfusion of high glucose (16.7 Mm) is performed at 1 ml/min. […] The first phase insulin secretion and dynamic secretion level of insulin are reflected from the curve of insulin levels measured.

[4] = test system: pancreatic islet β-cells of db/db mice; test: Immunohistochemical insulin staining and metrology analysis of pancreatic islets (β-cell amount); type: in vivo; settings: administration for 8 weeks
Experimental: as §3
Experimental methods: Immunohistochemical assay. The mice are anaesthetized with phenobarbital sodium, perfused with physiological saline via heart, and fixed with 4% polyoxymethylene. The pancreas are removed, and then placed in 4% polyoxymethylene for 4-6 hours, embedded in paraffin, and sliced into a thickness of 5 um. The slices are dewaxed with xylene, rehydrated with ethanol at different gradient concentrations, and then treated with 0.3% hydrogen peroxide at room temperature for 20 min, so as to block the activity of endogenous peroxidase. The samples are treated with steams at 121° C. under high pressure for 10 min for repairing the antigen. 10% goat serum is added for blocking non-specific antigens. Rabbit-anti-mouse insulin antibody is added, and reacted at 4° C. overnight for 14 hours. […]
Metrology analysis of pancreatic islets: All of the slices are observed with optical microscope E800 (Nikon, Japan), and photographed with a digital camera (Sony, Japan) connected with the microscope. The digital photographs are obtained via Axiovision 4.3 software, and analyzed with Image-Pro Plus 5.0.1. Fifteen pancreatic islet photographs are randomly selected for each mouse, and at least 50 pancreatic islet photographs are analyzed for each group. […]

[5] = test system: pancreatic islet β-cells of obese rats; test: Insulin expression in pancreatic islets of obese rats; type: in vivo, Wistar rats; settings: rhein for 4 weeks, vs obese control group
Source text: as §1, §2

[6] = Oral absorption kinetics and pharmacokinetics of rhein in rats; type: in vivo, Wistar rats
Experimental: Grouping of the animals and experimental procedure: Eighteen Wistar rats (male: female=1:1; body weight=180˜210 g) are randomly divided into 3 groups, 6 animal each group (male 3, female 3). The animals are fastened but supplied with free water for 10 h, and then are administrated ig with 35 mg/kg, 70 mg/kg or 140 mg/kg rhein. Blood samples are collected from carotid artery cannula at 0.033 h, 0.083 h, 0.25 h, 0.5 h, 0.75 h, 1 h, 2 h, 3 h, 4 h, 6 h, 8 h, 12 h and 14 h after administration, and centrifuged. 50 μl plasma is used for HPLC-fluorescence (FLD) analysis. The obtained plasma rhein concentration-time data are used for calculating pharmacokinetic parameters via corresponding pharmacokinetic programmes.

[7] = rhein 100 mg/Kg by gavage for 4 weeks

- Plasma rhein concentration ([6]; gavage 35 mg/kg, 0.033 h, mean (X) of 6 rats): 14.79 µg/mL
- Plasma rhein concentration ([6]; gavage 35 mg/kg, 0.083 h, mean (X) of 6 rats): 27.67 µg/mL
- Plasma rhein concentration ([6]; gavage 35 mg/kg, 0.25 h, mean (X) of 6 rats): 34.95 µg/mL
- Plasma rhein concentration ([6]; gavage 35 mg/kg, 0.50 h, mean (X) of 6 rats): 29.80 µg/mL
- Plasma rhein concentration ([6]; gavage 35 mg/kg, 0.75 h, mean (X) of 6 rats): 28.21 µg/mL
- Plasma rhein concentration ([6]; gavage 35 mg/kg, 1.0 h, mean (X) of 6 rats): 23.50 µg/mL
- Plasma rhein concentration ([6]; gavage 35 mg/kg, 2.0 h, mean (X) of 6 rats): 8.45 µg/mL
- Plasma rhein concentration ([6]; gavage 35 mg/kg, 3.0 h, mean (X) of 6 rats): 4.01 µg/mL
- Plasma rhein concentration ([6]; gavage 35 mg/kg, 4.0 h, mean (X) of 6 rats): 3.30 µg/mL
- Plasma rhein concentration ([6]; gavage 35 mg/kg, 6.0 h, mean (X) of 6 rats): 2.19 µg/mL
- Plasma rhein concentration ([6]; gavage 35 mg/kg, 8.0 h, mean (X) of 6 rats): 1.86 µg/mL
- Plasma rhein concentration ([6]; gavage 35 mg/kg, 12.0 h, mean (X) of 6 rats): 0.60 µg/mL
- Plasma rhein concentration ([6]; gavage 35 mg/kg, 14.0 h, mean (X) of 6 rats): 0.35 µg/mL
- Plasma rhein concentration ([6]; gavage 70 mg/kg, 1.0 h, mean (x) of 6 rats): 36.00 µg/mL
- Plasma rhein concentration ([6]; gavage 70 mg/kg, 2.0 h, individual rats 1-6, 70 mg/kg): 13.29 µg/mL and 34.33 µg/mL
- AUC ([6]; ig 35 mg/kg): 69.52 ± 9.13 µg·h/mL
- actually-measured peak time ([6]; ig 35 mg/kg): 0.42 ± 0.26 h
- calculated half life ([6]; ig 35 mg/kg): 3.22 ± 1.21 h
- peak concentration ([6]; ig 35 mg/kg): 37.96 ± 12.87 µg/mL
- AUC ([6]; ig 70 mg/kg): 164.29 ± 44.77 µg·h/mL
- actually-measured peak time ([6]; ig 70 mg/kg): 0.50 ± 0.27 h
- calculated half life ([6]; ig 70 mg/kg): 3.68 ± 1.42 h
- peak concentration ([6]; ig 70 mg/kg): 54.64 ± 11.60 µg/mL
- AUC ([6]; ig 140 mg/kg): 237.75 ± 42.81 µg·h/mL
- actually-measured peak time ([6]; ig 140 mg/kg): 0.38 ± 0.14 h
- calculated half life ([6]; ig 140 mg/kg): 4.30 ± 1.55 h
- peak concentration ([6]; ig 140 mg/kg): 67.17 ± 14.62 µg/mL
- pharmacokinetics in the tested dosage range (dose linearity) ([6]; ig 35-140 mg/kg): approximately linear
Compound: O=C(O)c1cc(O)c2c(c1)C(=O)c1cccc(O)c1C2=O [rhein]
- FBG (fasting blood glucose) [1, 7]: 5.3 ± 0.5 mmol/L
- SSBG (steady state blood glucose) [1, 7]: 14.9 ± 0.8 mmol/L
- GIR (glucose infusion rate) ([1]; rhein 100 mg/Kg by gavage for 4 weeks, Table 1): 32.2 ± 2.9 mg/kg/min
- glucose infusion rate (GIR) at steady-state ([1]; treatment with rhein for 4 weeks): 26.1 ± 2.9 mg/kg/min
- AUC-glucose [2]: 1834 ± 151
- AUC-insulin [2]: 812 ± 80
- AUCINSO-30 (AUC of insulin within 0-30 min) [2]: 63 ± 32
- Blood glucose ([2]; 0 min): 7.6 ± 0.7 mmol/L
- plasma insulin ([2]; 0 min): 5.3 ± 0.7 µg/L
- Blood glucose ([2]; 30 min): 19.5 ± 1.5 mmol/L
- plasma insulin ([2]; 30 min): 9.5 ± 1.9 µg/L
- Blood glucose ([2]; 60 min): 18.3 ± 2.0 mmol/L
- plasma insulin ([2]; 60 min): 6.0 ± 0.7 µg/L
- Blood glucose ([2]; 120 min): 10.4 ± 1.1 mmol/L
- plasma insulin ([2]; 120 min): 5.9 ± 0.6 µg/L
- insulin level after high glucose stimulation relative to basal level ([3]; islets of rhein-treated db/db mice, high glucose 16.7 mmol/L for 1 min): 7 times as high as basal level
- first phase insulin secretion ([3]; type 2 diabetic db/db mice, pancreatic islet perfusion): significantly improves the first phase insulin secretion; also recorded: increases the first phase insulin secretion
- insulin expression level in the pancreatic islets (insulin staining) ([4]; vs db/db control group): significantly enhances insulin expression level in the pancreatic islets
- amount (mass) of pancreatic islet β-cells ([4]; vs untreated db/db): increases the mass of pancreatic islet β-cells; also recorded: significantly reduces the loss of pancreatic islet β-cells
- insulin expression level in the islets [5]: significantly improves the insulin expression level in the islets
- Plasma rhein concentration ([6]; gavage 35 mg/kg, 0.033 h, individual rats 1-6, 35 mg/kg): 15.34 µg/mL and 19.11 µg/mL and 10.10 µg/mL and 10.54 µg/mL and 24.21 µg/mL and 9.45 µg/mL
- Plasma rhein concentration ([6]; gavage 35 mg/kg, 0.083 h, individual rats 1-6, 35 mg/kg): 22.07 µg/mL and 44.52 µg/mL and 22.33 µg/mL and 16.18 µg/mL and 40.94 µg/mL and 19.99 µg/mL
- Plasma rhein concentration ([6]; gavage 35 mg/kg, 0.25 h, individual rats 1-6, 35 mg/kg): 27.43 µg/mL and 45.05 µg/mL and 26.00 µg/mL and 26.86 µg/mL and 59.77 µg/mL and 24.59 µg/mL
- Plasma rhein concentration ([6]; gavage 35 mg/kg, 0.50 h, individual rats 1-6, 35 mg/kg): 22.01 µg/mL and 22.71 µg/mL and 28.87 µg/mL and 26.88 µg/mL and 55.32 µg/mL and 22.99 µg/mL
- Plasma rhein concentration ([6]; gavage 35 mg/kg, 0.75 h, individual rats 1-6, 35 mg/kg): 18.92 µg/mL and 18.72 µg/mL and 35.43 µg/mL and 35.51 µg/mL and 45.07 µg/mL and 15.62 µg/mL
- Plasma rhein concentration ([6]; gavage 35 mg/kg, 1.0 h, individual rats 1-6, 35 mg/kg): 19.13 µg/mL and 19.96 µg/mL and 21.75 µg/mL and 27.32 µg/mL and 37.07 µg/mL and 15.78 µg/mL
- Plasma rhein concentration ([6]; gavage 35 mg/kg, 2.0 h, individual rats 1-6, 35 mg/kg): 8.25 µg/mL and 4.26 µg/mL and 7.88 µg/mL and 7.44 µg/mL and 7.45 µg/mL and 15.41 µg/mL
- Plasma rhein concentration ([6]; gavage 35 mg/kg, 3.0 h, individual rats 1-6, 35 mg/kg): 4.03 µg/mL and 4.23 µg/mL and 4.39 µg/mL and 4.04 µg/mL and 2.99 µg/mL and 4.38 µg/mL
- Plasma rhein concentration ([6]; gavage 35 mg/kg, 4.0 h, individual rats 1-6, 35 mg/kg): 3.98 µg/mL and 4.16 µg/mL and 1.70 µg/mL and 3.75 µg/mL and 1.31 µg/mL and 4.91 µg/mL
- Plasma rhein concentration ([6]; gavage 35 mg/kg, 6.0 h, individual rats 1-6, 35 mg/kg): 3.08 μg/ml (2×) and 2.69 μg/ml and 2.89 μg/ml and 0.57 μg/ml and 0.86 μg/ml
- Plasma rhein concentration ([6]; gavage 35 mg/kg, 8.0 h, individual rats 1-6, 35 mg/kg): 4.99 µg/mL and 0.75 µg/mL and 1.94 µg/mL and 2.05 µg/mL and 1.07 µg/mL and 0.34 µg/mL
- Plasma rhein concentration ([6]; gavage 35 mg/kg, 12.0 h, individual rats 1-6, 35 mg/kg): 0.58 μg/ml and 0.18 μg/ml and 1.13 μg/ml and 1.35 μg/ml and ND (Lower than the minimal detectable concentration 0.13 μg/ml) and 0.36 μg/ml
- Plasma rhein concentration ([6]; gavage 35 mg/kg, 14.0 h, individual rats 1-6, 35 mg/kg): 0.51 μg/ml and ND (Lower than the minimal detectable concentration 0.13 μg/ml) (3×) and 0.50 μg/ml and 0.56 μg/ml
- Plasma rhein concentration ([6]; gavage 70 mg/kg, 1.0 h, individual rats 1-6, 70 mg/kg): 30.42 µg/mL and 40.86 µg/mL and 29.41 µg/mL and 35.89 µg/mL and 20.75 µg/mL and 58.65 µg/mL
